Laboratory results published in US9145415B2, “Nitrogen-containing heterocyclic compound or salt thereof” (FUJIFILM Corporation, priority 2012, dated 2015).
pIC50: −log10 of the molar value. Like-named read-outs stand apart in the source and are kept apart here.

Tests used:
[1] = molecular target: T1, human FLT3 protein (FLT3 (WT)) (Homo sapiens, UniProt P36888); experiment: FLT3 inhibition test (FLT3 enzyme inhibition, time-resolved fluorescence of substrate peptide phosphorylation); assay type: biochemical; conditions: read-out: FLT3 (WT) enzyme inhibition activity
T1 construct: human FLT3 protein (intracellular region, 564 to 993 aa); GST; purchased Carna Biosciences; host or cells: baculovirus expression system
T1 sequence (P36888 564-993): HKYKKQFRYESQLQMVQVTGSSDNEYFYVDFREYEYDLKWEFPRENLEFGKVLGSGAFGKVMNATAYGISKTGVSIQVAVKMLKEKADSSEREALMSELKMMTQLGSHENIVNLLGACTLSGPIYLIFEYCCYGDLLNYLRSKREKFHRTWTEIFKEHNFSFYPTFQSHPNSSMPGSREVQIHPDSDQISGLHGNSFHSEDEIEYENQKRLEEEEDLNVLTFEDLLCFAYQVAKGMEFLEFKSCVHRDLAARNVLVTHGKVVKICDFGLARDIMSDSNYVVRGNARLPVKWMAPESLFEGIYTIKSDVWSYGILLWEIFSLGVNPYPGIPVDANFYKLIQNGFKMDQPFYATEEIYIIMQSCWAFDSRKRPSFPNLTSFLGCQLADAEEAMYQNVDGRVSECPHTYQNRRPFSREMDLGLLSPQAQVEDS
In short: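 Substrate peptide phosphorylation detected by time-resolved fluorescence after a 30 min kinase reaction at 25° C with 50 μM ATP (final). Beforehand, compound and FLT3 (WT, 1.2 μg) stood 15 min at 25° C in HEPES buffer pH 7.5 containing MgCl2, NaCl, BSA and DTT.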

MV4-11 cells = experiment: Leukemia cell proliferation inhibition test (ATPlite), MV4-11; assay type: cell-based; conditions: Homo sapiens, read-out: MV4-11 cell proliferation inhibition effect
In short: (§1)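 Molm-13 or MV4-11 cells at 10,000 cells/well in RPMI with 10% FBS and pen/strep were exposed to serially diluted compound for 72 h at 37 °C, 5% CO2. Total cellular ATP was read by luciferase luminescence. GI50 was taken relative to 0.1% DMSO control, from duplicates by sigmoid non-linear regression.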

Molm-13 cells = experiment: Leukemia cell proliferation inhibition test (ATPlite), Molm-13; assay type: cell-based; conditions: Homo sapiens, read-out: MOLM13 cell proliferation inhibition effect
In short: as §1

[2] = GST-fused human FLT3 (564 to 993 aa), ATP 50 μM
[3] = MV4-11, 72 h, MV4-11, 72 hours culture, ATPlite, GI50 per method
[4] = MOLM-13, 72 h, Molm-13, 72 hours culture, ATPlite, GI50 per method

Structure (SMILES) | pIC50 ([1]; FLT3 (WT)) | pIC50 (MV4-11 cells; MV4-11, MV4-11 cell) | pIC50 (Molm-13 cells; MOLM-13, MOLM13 cell) | pIC50 [1, 2] | pIC50 (MV4-11 cells; [3]) | pIC50 (Molm-13 cells; [4])
CCCNc1nc(Nc2ccc(C(N)=O)cc2)ncc1C(=O)Nc1ccccc1CNC(=O)[C@H](C)N(C)C(=O)/C=C/CN(C)C [Compound 3-15] |  |  |  | > 8.00 | 6.00 to 7.00 | 6.00 to 7.00
CCCNc1nc(Nc2ccc(C(N)=O)cc2)ncc1C#Cc1ccc(NC(=O)CNC(=O)/C=C/CN(C)C)cc1 [Compound 8-4] |  |  |  | > 8.00 | 7.00 to 8.00 | 7.00 to 8.00
CCCNc1nc(Nc2ccc(C#N)cc2)ncc1C#CCCCNC(=O)[C@H](CO)N(C)C(=O)/C=C/CN(C)C [Compound 7-62, (S,E)-N-(1-((5-(2-((4-Cyanophenyl)amino)-4-(propylamino)pyrimidin-5-yl)-4-pentyn-1-yl)amino)-3-hydroxy-1-oxopropan-2-yl)-4-(dimethylamino)-N-methyl-2-butenamide] |  |  |  | > 8.00 | > 8.00 | > 8.00
CCCNc1nc(Nc2ccc(C#N)cc2)ncc1C#CCCCNC(=O)CN(Cc1ccccc1)C(=O)/C=C/CN(C)C [Compound 7-43] |  |  |  | > 8.00 | > 8.00 | > 8.00
CCCNc1nc(Nc2ccc(F)c(OC)c2)ncc1C#CCCCNC(=O)[C@H](C)N(C)C(=O)/C=C/CN(C)C [Compound 9-29] |  |  |  | > 8.00 | > 8.00 | > 8.00
C[C@@H](C(=O)NCCCC#Cc1cnc(Nc2ccnc(F)c2)nc1N1CCCC1)N(C)C(=O)/C=C/CN(C)C [Compound 9-12, (S,E)-4-(Dimethylamino)-N-(1-((5-(2-((2-fluoropyridin-4-yl)amino)-4-(pyrrolidin-1-yl)pyrimidin-5-yl)-4-pentyn-1-yl)amino)-1-oxopropan-2-yl)-N-methyl-2-butenamide] |  |  |  | > 8.00 | > 8.00 | > 8.00
CCCNc1nc(Nc2ccc(C(N)=O)cc2)ncc1C#Cc1cccc(NC(=O)[C@H](C)N(C)C(=O)/C=C/CN(C)C)c1 [Compound 8-2, (S,E)-4-((5-((3-(2-(4-(Dimethylamino)-N-methyl-2-butenamido)propanamido)phenyl)ethynyl)-4-(propylamino)pyrimidin-2-yl)amino)benzamide] |  |  |  | > 8.00 | > 8.00 | > 8.00
COc1nc(Nc2ccc(C#N)cc2)ncc1C#C[C@@H]1CCC[C@H](NC(=O)[C@H](C)N(C)C(=O)/C=C/CN(C)C)C1 [Compound 15-1, (E)-N—((S)-1-(((1S,3R)-3-((2-((4-cyanophenyl)amino)-4-methoxypyrimidin-5-yl)ethynyl)cyclohexyl)amino)-1-oxopropan-2-yl)-4-(dimethylamino)-N-methyl-2-butenamide] |  |  |  | > 8.00 | > 8.00 | > 8.00
CCCNc1nc(Nc2ccc(C(F)(F)F)cc2)ncc1C#CCCCNC(=O)[C@H](C)N(C)C(=O)/C=C/CN(C)C [Compound 12-5] |  |  |  | > 8.00 | 7.00 to 8.00 | 7.00 to 8.00
C=CC(=O)NCC(=O)Nc1cccc(C#Cc2cnc(Nc3ccc(C(N)=O)cc3)nc2NCCC)c1 [Compound 8-3] |  |  |  | > 8.00 | > 8.00 | 7.00 to 8.00
CCCNc1nc(Nc2ccc(C(N)=O)cc2)ncc1C(=O)Nc1cccc(NC2CCCN(C(=O)/C=C/CN(C)C)C2)c1 (stereo not drawn) [Compound 3-19] |  |  |  | > 8.00 | 7.00 to 8.00 | 6.00 to 7.00
CCCNc1nc(Nc2cccc(C#N)c2)ncc1C#CCCCNC(=O)[C@H](C)N(C)C(=O)/C=C/CN(C)C [Compound 7-3, (S,E)-N-(1-((5-(2-((3-Cyanophenyl)amino)-4-(propylamino)pyrimidin-5-yl)-4-pentyn-1-yl)amino)-1-oxopropan-2-yl)-4-(dimethylamino)-N-methyl-2-butenamide] |  |  |  | > 8.00 | > 8.00 | > 8.00
CCCNc1nc(Nc2ccc(C#N)cc2)ncc1C#CCCCNC(=O)CN(C)C(=O)/C=C/CN(C)C [Compound 7-9, (E)-N-(2-((5-(2-((4-Cyanophenyl)amino)-4-(propylamino)pyrimidin-5-yl)-4-pentyn-1-yl)amino)-2-oxoethyl)-4-(dimethylamino)-N-methyl-2-butenamide] |  |  |  | > 8.00 | > 8.00 | > 8.00
COc1nc(Nc2ccc(F)nc2)ncc1C#C[C@@H]1CCC[C@H](NC(=O)[C@H](C)N(C)C(=O)/C=C/CN(C)C)C1 [Compound 15-2] |  |  |  | > 8.00 | > 8.00 | 7.00 to 8.00
CCCNc1nc(Nc2ccc(F)nc2)ncc1C#CCCCNC(=O)[C@H](C)N(C)C(=O)/C=C/CN(C)C [Compound 7-21, (S,E)-4-(Dimethylamino)-N-(1-((5-(2-((6-fluoropyridin-3-yl)amino)-4-(propylamino)pyrimidin-5-yl)-4-pentyn-1-yl)amino)-1-oxopropan-2-yl)-N-methyl-2-butenamide] |  |  |  | > 8.00 | > 8.00 | > 8.00
CCCNc1nc(Nc2ccc(C#N)cc2)ncc1C#CCCCNC(=O)[C@H](CC)N(C)C(=O)/C=C/CN(C)C [Compound 7-34] |  |  |  | > 8.00 | > 8.00 | > 8.00
COc1ccc(Nc2nc(Nc3cccc(F)c3)ncc2C#CCCCNC(=O)[C@H](C)N(C)C(=O)/C=C/CN(C)C)cc1 [Compound 10-3, (S,E)-4-(Dimethylamino)-N-(1-((5-(2-((3-fluorophenyl)amino)-4-((4-methoxyphenyl)amino)pyrimidin-5-yl)-4-pentyn-1-yl)amino)-1-oxopropan-2-yl)-N-methyl-2-butenamide] |  |  |  | > 8.00 | > 8.00 | > 8.00
C=CC(=O)N[C@H](C)C(=O)Nc1cccc(NC(=O)c2cnc(NCCc3ccncc3)nc2NCCC)c1 [Compound 2-3] |  |  |  | > 8.00 | 7.00 to 8.00 | 7.00 to 8.00

The remaining lines, values ahead:

pIC50 ([1]; FLT3 (WT)) | pIC50 (MV4-11 cells; MV4-11, MV4-11 cell) | pIC50 (Molm-13 cells; MOLM-13, MOLM13 cell) | pIC50 [1, 2] | pIC50 (MV4-11 cells; [3]) | pIC50 (Molm-13 cells; [4]) | Structure (SMILES)
> 8.00 | > 8.00 | > 8.00 |  |  |  | CCCNc1nc(Nc2cnc3[nH]nc(OC)c3c2)ncc1C#CCCCNC(=O)[C@@H]1CCCN1C(=O)/C=C/CN(C)C [Compound 22-57, (S,E)-1-(4-(Dimethylamino)-2-butenoyl)-N-(5-(2-((3-methoxy-1H-pyrazolo[3,4-b]pyridin-5-yl)amino)-4-(propylamino)pyrimidin-5-yl)-4-pentyn-1-yl)pyrrolidine-2-carboxamide]
 |  |  | 7.00 to 8.00 | 7.00 to 8.00 | 7.00 to 8.00 | C[C@@H](C(=O)NCCCC#Cc1cnc(Nc2ccc(C#N)cc2)nc1-n1cccn1)N(C)C(=O)/C=C/CN(C)C [Compound 20-2, (S,E)-N-(1-((5-(2-((4-cyanophenyl)amino)-4-(1H-pyrazol-1-yl)pyrimidin-5-yl)-4-pentyn-1-yl)amino)-1-oxopropan-2-yl)-4-(dimethylamino)-N-methyl-2-butenamide]
7.00 to 8.00 | 7.00 to 8.00 | 7.00 to 8.00 |  |  |  | CCCNc1nc(Nc2ccc(-n3nccn3)cc2)ncc1C#CCCCNC(=O)[C@H](C)N(C)C(=O)/C=C/CN(C)C [Compound 22-16]
> 8.00 | > 8.00 | > 8.00 |  |  |  | CNc1nc(Nc2ccc3c(F)nn(C)c3c2)ncc1C#CCCCNC(=O)[C@H](C)N(C)C(=O)/C=C/CN(C)C [Compound 21-50]
 |  |  | > 8.00 | > 8.00 | > 8.00 | CCCNc1nc(Nc2ccc3nn(C)cc3c2)ncc1C#CCCCNC(=O)[C@H](C)N(C)C(=O)/C=C/CN(C)C [Compound 21-7]
> 8.00 | 7.00 to 8.00 | 7.00 to 8.00 |  |  |  | CCCNc1nc(Nc2ccc(-n3cccn3)cc2)ncc1C#CCCCNC(=O)[C@H](C)N(C)C(=O)/C=C/CN(C)C [Compound 22-15]
